Experimental data taken from BindingDB's records for doi:10.1016/j.bmc.2007.07.029 (Polish Academy of Sciences, 2007).

Assays:
Test in all cases: Radioligand Binding Assay (Ki)
D(2) dopamine receptor = D(2) dopamine receptor (Rattus norvegicus, UniProt P61169)
Method: (§1) Competition experiments were performed in the presence radioligand with membrane protein and test compounds. After incubation, the reaction stopped by rapid filtration onto a 96-well GF/B filter. Radioactivity retained on the filters was measured by liquid scintillation counting (Beckman LS 6500 apparatus). IC50 values for test compounds were determined from nonlinear regression analysis of data collected from ligand binding experiments. The inhibition constant (Ki) was calculated from IC50 value by the Cheng and Prusoff equation.

[1] = target: T1, Alpha-1B adrenergic receptor (Rattus norvegicus, UniProt P15823)
T1 sequence (P15823 whole entry): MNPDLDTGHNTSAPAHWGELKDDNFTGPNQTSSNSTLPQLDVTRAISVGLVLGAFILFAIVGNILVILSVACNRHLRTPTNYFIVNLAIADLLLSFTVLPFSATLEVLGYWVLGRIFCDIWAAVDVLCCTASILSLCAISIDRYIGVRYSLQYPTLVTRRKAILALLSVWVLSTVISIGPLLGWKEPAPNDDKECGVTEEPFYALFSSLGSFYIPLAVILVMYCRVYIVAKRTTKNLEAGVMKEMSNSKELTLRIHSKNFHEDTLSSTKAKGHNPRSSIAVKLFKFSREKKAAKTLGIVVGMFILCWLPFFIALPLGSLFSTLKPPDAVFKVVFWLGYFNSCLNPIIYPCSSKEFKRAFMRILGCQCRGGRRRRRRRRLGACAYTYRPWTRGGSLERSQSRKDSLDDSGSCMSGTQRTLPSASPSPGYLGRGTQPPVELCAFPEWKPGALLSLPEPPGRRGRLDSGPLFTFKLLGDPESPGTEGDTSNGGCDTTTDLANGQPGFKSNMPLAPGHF
Method: as §1

[2] = target: 5-hydroxytryptamine receptor 7 (Homo sapiens, UniProt P34969); details: pH 7.4; 37 °C
Method: as §1

[3] = target: T2, 5-hydroxytryptamine receptor 1A (Rattus norvegicus, UniProt P19327); details: pH 7.4; 37 °C
T2 sequence (P19327 whole entry): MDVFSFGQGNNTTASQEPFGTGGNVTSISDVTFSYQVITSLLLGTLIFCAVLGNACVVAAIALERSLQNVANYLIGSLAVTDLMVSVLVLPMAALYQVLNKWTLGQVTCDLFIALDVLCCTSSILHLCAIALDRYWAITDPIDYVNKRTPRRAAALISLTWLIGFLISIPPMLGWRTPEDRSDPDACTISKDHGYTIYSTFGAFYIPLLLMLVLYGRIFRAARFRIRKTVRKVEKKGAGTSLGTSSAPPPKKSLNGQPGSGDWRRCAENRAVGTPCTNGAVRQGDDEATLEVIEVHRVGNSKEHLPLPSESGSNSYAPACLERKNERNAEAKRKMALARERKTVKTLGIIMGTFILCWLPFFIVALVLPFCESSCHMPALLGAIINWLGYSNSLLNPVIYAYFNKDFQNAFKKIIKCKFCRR
Method: as §1

Chain of 5-hydroxytryptamine receptor 7 (P34969 whole entry): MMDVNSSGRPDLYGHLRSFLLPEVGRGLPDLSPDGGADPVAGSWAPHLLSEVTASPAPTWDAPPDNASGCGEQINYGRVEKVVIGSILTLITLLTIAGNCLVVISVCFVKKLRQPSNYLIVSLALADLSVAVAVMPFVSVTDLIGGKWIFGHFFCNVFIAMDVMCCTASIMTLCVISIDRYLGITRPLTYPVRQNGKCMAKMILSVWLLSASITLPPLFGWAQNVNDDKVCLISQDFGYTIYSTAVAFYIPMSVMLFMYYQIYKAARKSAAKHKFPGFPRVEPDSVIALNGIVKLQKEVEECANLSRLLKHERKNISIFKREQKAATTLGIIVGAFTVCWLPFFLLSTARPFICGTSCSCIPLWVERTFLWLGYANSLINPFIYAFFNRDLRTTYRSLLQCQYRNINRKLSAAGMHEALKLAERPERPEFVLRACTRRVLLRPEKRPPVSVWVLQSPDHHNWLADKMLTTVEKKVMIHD
Chain of D(2) dopamine receptor (P61169 whole entry): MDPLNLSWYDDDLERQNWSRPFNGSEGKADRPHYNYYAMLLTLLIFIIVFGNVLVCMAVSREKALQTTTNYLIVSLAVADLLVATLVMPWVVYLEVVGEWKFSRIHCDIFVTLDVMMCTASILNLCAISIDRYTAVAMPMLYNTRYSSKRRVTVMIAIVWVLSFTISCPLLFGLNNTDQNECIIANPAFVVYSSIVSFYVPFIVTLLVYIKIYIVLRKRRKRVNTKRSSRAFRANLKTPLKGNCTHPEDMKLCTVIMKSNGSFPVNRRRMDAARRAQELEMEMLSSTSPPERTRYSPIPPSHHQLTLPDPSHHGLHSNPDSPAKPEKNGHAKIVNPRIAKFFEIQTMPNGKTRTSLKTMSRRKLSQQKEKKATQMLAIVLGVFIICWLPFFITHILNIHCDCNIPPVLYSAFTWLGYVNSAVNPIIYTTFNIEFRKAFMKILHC

With `O=C1CCC(=O)N1C1CCC(N2CCN(c3cccc(C(F)(F)F)c3)CC2)CC1` (centres undefined) [1-(m-trifluorophenyl)piperazine, 4] the Ki (D(2) dopamine receptor) was over 25 µM, the Ki [1] was 505 nM and the Ki [2] was 1820 nM. The Ki [3] was 4 nM.
